Test results published in paper PMC8406319, “The dCache Chemoreceptor TlpA of Helicobacter pylori Binds Multiple Attractant and Antagonistic Ligands via Distinct Sites” (mBio, 2021).
Counter-ions that a name gives are not always drawn.

System: H. pylori PMSS1 WT
Assay: Ligand competition tracking (chemotaxis) assay
Type: cell-based, Helicobacter pylori
Conditions: 10 mM each; added before or after the chemoattractant
Procedure: Consequently, we tested whether glucosamine affected H. pylori chemotaxis by developing a ligand competition tracking assay between non-chemotaxis-active and chemotaxis-active TlpA ligands. This assay is a modified version of our live-cell video microscopy assay where the addition of a chemotaxis-active ligand is followed by the addition of a non-chemotaxis-active ligand 10 s later and vice versa. […] This response was decreased regardless of whether glucosamine was added before or after the addition of the chemoattractant.
FIG 7 Ligand competition tracking experiment between chemoactive and nonchemoactive TlpA ligands. Cultures of the H. pylori PMSS1 WT were grown in BB10 overnight and then back-diluted as described in the legend of Fig. 1. Cultures were mock treated or treated with various concentrations of compounds as indicated. The pH of the cysteine stock was adjusted using NaOH to match the pH of the water used for the untreated control. The cells were immediately filmed, and direction changes were counted over a 3-s swimming period in at least 100 cells per treatment from 3 biological replicates. Repellents increase direction changes, as exemplified by the control repellent HCl, while attractants decrease direction changes, as exemplified by the control attractant dipyridyl. Data are normalized to the values for the untreated control for each strain, as described in Materials and Methods. […]
Swimming behavior assays were done with H. pylori PMSS1 strains grown in BB10 as described above. […] The pH of BB10 upon treatment was independently assessed using a Denver Instruments pH meter. […] For each sample, >100 3-s-long bacterial tracks from three independent cultures were analyzed manually to identify stops followed by direction changes. Data for all biological replicates under each condition were combined, and the average number of direction changes in 3 s and the standard error of the mean were calculated. […]

SMILES: N[C@H]1C(O)O[C@H](CO)[C@@H](O)[C@@H]1O (stereo partly drawn) [Glucosamine, D(+)-glucosamine hydrochloride]
- Effect on chemoattractant response to arginine: prevented the chemoattractant response
- Effect on chemoattractant response to cysteine: severely blunted the response
- Effect on chemoattractant response to fumarate: prevented the chemoattractant response
